Laboratory results reported in patent US11992491B2, “Crystalline salts of 5-methyl-(6S)-tetrahydrofolic acid and L-valine ethyl ester” (Merck Patent GmbH, priority 2018, dated 2024).

How the values were obtained:
[1] = for kinetic solubility: 42.5 mg in 2.00 mL purified/de-ionized water, agitated at room temperature for one minute, filtered, gravimetric evaluation of residue
Description: (§1) 42.5 mg of the anhydrous form of the crystalline 5-methyl-(6S)-tetrahydrofolic acid L-valine ethyl ester salt (Form A) according to Example 2 was weighed into a 7 mL glass vial with a screw cap. 2.00 mL of purified/de-ionized water (for instance water for chromatography) was added to the solid using an adjustable volumetric pipette. The mixture was vigorously agitated at room temperature for one minute. […] The dilute suspension was filtered by centrifugal filtration and 1.50 mL of the aqueous solution was transferred into a tared glass vial (about 10 mL volume). The water was evaporated in an air dryer at 40° C. for about 15 hours, then at 50° C. for about eight hours, subsequently drying was completed at 50° C. under vacuum (10 to 20 mbar) for about 13 hours. The solubility was determined by gravimetric evaluation of the solid residue.
as §1, with “calcium” for “L-valine ethyl ester”, “salt” for “salt (Form A) according to Example 2”, “The” for “The dilute”

[2] = relative humidity range from 0 to 55%; RH scans 5% per hour
From the text: DVS measurements are typically performed with an SPS11-100n “Sorptions Prüfsystem” from ProUmid (formerly “Projekt Messtechnik”), August-Nagel-Str. 23, 89079 Ulm (Germany).
23, 89079 Ulm (Germany). For relative humidity (RH) scans, change rates of 5% per hour were used.

[3] = cited from earlier work; for aqueous solubility: at room temperature, known values for calcium salt polymorphs

Compound	kinetic solubility [1]	change of relative sample mass (DVS) [2]	aqueous solubility [3]	other results
5-methyl-(6S)-tetrahydrofolic acid L-valine ethyl ester salt	12.5 mg of 5-methyl-(6S)-tetrahydrofolic acid per mL	less than 1%		improvement of kinetic solubility versus the known metastable Form 1 of the calcium salt ([1]; versus calcium salt Form 1): about 50%
5-methyl-(6S)-tetrahydrofolic acid calcium salt	9.0 mg of 5-methyl-(6S)-tetrahydrofolic acid per mL	about 6%		
CN1c2c(nc(N)[nH]c2=O)NC[C@@H]1CNc1ccc(C(=O)N[C@@H](CCC(=O)O)C(=O)O)cc1 [5-methyl-(6S)-tetrahydrofolic acid]				solubility in water (in words) ([3]; water): poorly soluble
CN1c2c([nH]c(N)nc2=O)NC[C@@H]1CNc1ccc(C(=O)N[C@@H](CCC(=O)[O-])C(=O)[O-])cc1.[Ca+2] [calcium salt (Form Ill), calcium salt of 5-methyl-(6S)-tetrahydrofolic acid]			about 2.5 mg/ml	
CN1c2c([nH]c(N)nc2=O)NC[C@@H]1CNc1ccc(C(=O)N[C@@H](CCC(=O)[O-])C(=O)[O-])cc1.[Ca+2] [metastable Form I, calcium salt of 5-methyl-(6S)-tetrahydrofolic acid]			about 10 mg/ml	
